Data: patent US12391674B2, “Heterocyclic compounds for the treatment of epilepsy” (OTSUKA PHARMACEUTICAL CO., LTD., priority 2018, dated 2025)
Read-outs that look alike come from different tables or passages of the source.

Tested on: DBA/2 mice
Test: Audiogenic seizure model
Format: in vivo
Conditions: Mus musculus, read-out: Seizure suppression
Protocol: The animal model used in this test is a phenotype model for partial seizure (including secondary generalized seizure) and generalized tonic-clonic seizure, and has high clinical predictability. This test was performed in accordance with the report of De Sarro et al (Br J Pharmacol. 1988 February; 93 (2): 247-56. Anticonvulsant effects of some calcium entry blockers in DBA/2 mice. De Sarro G B, Meldrum B S, Nistico G.).
In this test example, the example compounds shown in Tables 3-1 to 3-3 below were used as test compounds.
The test compounds were suspended in 5% gum arabic/distilled water (w/v), and administered by forced oral administration to male and female DBA/2 mice (Japan SLC, Inc., 3 weeks old, 8 per group) at a dose of 30 mg/kg. After one hour of the oral administration of the test compound, each mouse was placed in a transparent acrylic cylinder 30 cm high and 23 cm in diameter, and 30 seconds were allowed for habituation. Then, they were exposed to auditory stimulation (12.6 kHz, 100-110 dB) for 1 minute or until a tonic seizure occurred.
The seizure response was assessed using the following scale, 0: no seizure, 1: wild running, 2: clonic seizure, 3: tonic seizure and 4: respiratory arrest. The maximum response was recorded as the seizure severity score.
The seizure suppression rate for each compound administration group was calculated according to the following formula.
Here, a rate of seizure suppression of 90% or more was expressed as “A”, a rate of seizure suppression of 70% or more and less than 90% was expressed as “B”, and a rate of seizure suppression of 50% or more and less than 70% was expressed as “C”.

[1] = DBA/2 mice, oral, dose 30 mg/kg, auditory stimulation 1 hour after administration
[2] = DBA/2 mice, oral, auditory stimulation 1 hour after administration

Row | SMILES | inhibition in vivo at 30 mg/kg [1] [%] | further results
1 | Fc1ccc(Oc2ncc(-c3ccc4cnc(C(F)(F)F)n4c3)cn2)cc1 [Example 288] | > 90 | 
2 | Fc1ccc(Oc2ncc(-c3ccn4cc(C(F)(F)F)nc4c3)cn2)cc1 [Example 219] | > 90 | 
3 | Fc1ccccc1Oc1ncc(-c2ccn3nncc3c2)cn1 [Example 185] | > 90 | 
4 | O=C1CCc2cc(-c3cnc(Oc4ccccc4F)nc3)ccc2N1 [Example 270] | > 90 | 
5 | O=C1CCN(c2ccc(Cc3cccc(C(F)(F)F)c3)cc2)C(=O)N1 [Example 341] | 50 to 70 | 
6 | Fc1cccc(Oc2ncc(-c3ccc4nnc(C(F)(F)F)n4c3)cn2)c1 [Example 281] | > 90 | 
7 | COc1ccc(-c2cnc(Oc3cccc(Cl)c3)nc2)nn1 [Example 71] | > 90 | 
8 | COc1ccc(-c2cnc(Oc3cccc(C(F)(F)F)c3)nc2)nn1 [Example 12] |  | inhibition in vivo at 3 mg/kg (DBA/2 mice, oral, dose 3 mg/kg, auditory stimulation 1 hour after administration): > 90%
9 | Clc1cc2c(-c3cnc(Oc4ccccc4)nc3)cccc2cn1 [Example 268] | > 90 | 
10 | Fc1ccc(Oc2ncc(-c3ccc4cncn4c3)cn2)cc1 [Example 158] | > 90 | 
11 | Cn1ccc2cc(-c3cnc(Oc4ccccc4)nc3)ccc21 [Example 260] | > 90 | 
12 | Cc1nc2cc(-c3cnc(Oc4ccccc4)nc3)ccc2s1 [Example 238] | > 90 | 
13 | OCc1ccc(-c2cnc(Oc3ccccc3)nc2)nn1 [Example 72, (6-(2-Phenoxypyrimidin-5-Yl)Pyridazin-3-Yl) Methanol] | > 90 | 
14 | O=c1cc(-c2cnc(Oc3ccccc3)nc2)cn[nH]1 [Example 116] | > 90 | 
15 | Cc1cc(Oc2cccc(F)c2)ccc1N1CCC(=O)NC1=O [Example 334] | 50 to 70 | 
16 | O=C1CCC(c2cnc(Oc3cccc(C(F)(F)F)c3)nc2)=NN1 [Example 100] | > 90 | 
17 | Cn1ccc2c(-c3cnc(Oc4ccccc4)nc3)cccc21 [Example 263] | > 90 | 
18 | Fc1ccc(Oc2ncc(-c3ccc4nccn4c3)cn2)c(F)c1 [Example 165] |  | inhibition in vivo at 5 mg/kg [2]: > 90%
19 | Fc1cccc(Oc2ncc(-c3ccc4cnnn4c3)cn2)c1 [Example 175] | > 90 | 
20 | O=C1CCN(c2ccc(Cc3ccc(C(F)(F)F)cc3)cc2)C(=O)N1 [Example 342] | 50 to 70 | 
21 | Fc1ccccc1Oc1ncc(-c2cn3ccnc3cn2)cn1 [Example 149] | > 90 | 
22 | Cc1cn2cc(-c3cnc(Oc4ccc(F)cc4)nc3)ccc2n1 [Example 180] | > 90 | 
23 | O=C1NCCCN1c1cnc(Oc2cccc(F)c2)nc1 [Example 221, 1-(2-(3-Fluorophenoxy)Pyrimidin-5-Yl)Tetrahydropyrimidin-2 (1H)-One] | > 90 | 
24 | Fc1cccc(Oc2ncc(-c3ccc4ncnn4c3)cn2)c1 [Example 145] | > 90 | 
25 | c1ccc(Oc2ncc(-c3cccc4ccncc34)cn2)cc1 [Example 249] | > 90 | 

Row | SMILES | inhibition in vivo at 30 mg/kg [1] [%] | further results
26 | Fc1cccc(Oc2ncc(-c3ccc(C(F)(F)F)nn3)cn2)c1 [Example 46] | > 90 | 
27 | c1ccc(Oc2ncc(-c3ccc4cccnc4c3)cn2)cc1 [Example 244] | > 90 | 
28 | c1ccc(Oc2ncc(-c3cccc4nccn34)cn2)cc1 [Example 136] | > 90 | 
29 | O=c1ccc(-c2cnc(Oc3ccc(F)cc3F)nc2)n[nH]1 [Example 109] | > 90 | 
30 | Cc1ncccc1-c1cnc(Oc2c(F)cccc2F)nc1 [Example 54] | > 90 | 
31 | Fc1ccccc1Oc1ncc(-c2ccn3cc(C(F)(F)F)nc3c2)cn1 [Example 217] | > 90 | 
32 | Cc1ncccc1-c1cnc(Oc2cc(F)cc(F)c2)nc1 [Example 56] |  | inhibition in vivo at 30 mg/kg (po, 1 h): > 90%
33 | Fc1ccc(Oc2ncc(-c3ccn4nccc4c3)cn2)cc1 [Example 197] | > 90 | 
34 | Nc1cc(-c2cnc(Oc3cccc(C(F)(F)F)c3)nc2)ccn1 [Example 81] | > 90 | 
35 | Cc1cccc(Oc2ncc(-c3ccc(C)nc3)cn2)c1 [Example 28] | > 90 | 
36 | Fc1ccc(Oc2ncc(-c3ccc(C(F)(F)F)nn3)cn2)cc1 [Example 57] |  | inhibition in vivo at 30 mg/kg (po, 1 h): > 90%
37 | Cc1ncccc1-c1cnc(Oc2cccc(OC(F)(F)F)c2)nc1 [Example 77] | > 90 | 
38 | Fc1cccc(Oc2ncc(-c3ccc4nccn4n3)cn2)c1 [Example 125] | > 90 | 
39 | CC(C)(O)c1ccc(-c2cnc(Oc3ccccc3)nc2)nn1 [Example 69, 2-(6-(2-Phenoxypyrimidin-5-Yl)Pyridazin-3-Yl) Propan-2-Ol] | > 90 | 
40 | O=C1CCN(c2ccc(Oc3cccc(F)c3)c3ccccc23)C(=O)N1 [Example 345] | 50 to 70 | 
41 | Fc1cccc(Oc2ncc(-c3cnc4ncnn4c3)cn2)c1 [Example 189] | > 90 | 
42 | Cc1ccc(-c2cnc(Oc3cccc(C(F)(F)F)c3)nc2)cn1 [Example 15] | > 90 | 
43 | O=C1Cc2c(cccc2-c2cnc(Oc3ccccc3)nc2)N1 [Example 272] | > 90 | 
44 | Cc1nc2ccc(-c3cnc(Oc4ccc(F)cc4)nc3)cn2c1C [Example 203] | > 90 | 
45 | COc1ccc(-c2cnc(Oc3cc(F)ccc3F)nc2)nn1 [Example 63, 3-(2-(2,5-Difluorophenoxy)Pyrimidin-5-Yl)-6-Methoxypyridazine] | > 90 | 
46 | Cc1cccc(Oc2ncc(-c3ccc(=O)[nH]c3)cn2)c1 [Example 106, 5-(2-(m-Tolyloxy)Pyrimidin-5-Yl)Pyridin-2 (1H)-One] |  | inhibition in vivo at 5 mg/kg [2]: > 90%
47 | OC1CCN(c2cnc(Oc3cccc(F)c3)nc2)CC1 [Example 227] | > 90 | 
48 | Nc1ccc(-c2cnc(Oc3ccc(F)c(F)c3)nc2)cn1 [Example 85] | > 90 | 
49 | Cc1ncccc1-c1cnc(Oc2ccc(F)cc2)nc1 [Example 49] | > 90 | 
50 | c1ccc(Oc2ncc(-c3ccc4scnc4c3)cn2)cc1 [Example 241] | > 90 | 

Row | SMILES | inhibition in vivo at 30 mg/kg [1] [%] | further results
51 | Fc1cccc(Oc2ncc(-c3ccc4ccnn4c3)cn2)c1 [Example 153] | > 90 | 
52 | Fc1ccccc1Oc1ncc(-c2ccn3ccnc3c2)cn1 [Example 130] | > 90 | 
53 | Fc1cccc(Oc2ncc(-c3ccn4cc(C(F)(F)F)nc4c3)cn2)c1 [Example 218] | > 90 | 
54 | FC(F)(F)c1cccc(-c2cnc(Oc3ccccc3)nc2)n1 [Example 301] | > 90 | 
55 | N#Cc1cccc(Oc2ncc(-c3ccc(N)nc3)cn2)c1 [Example 89] | > 90 | 
56 | O=c1ccn(-c2ccc(Oc3ccccc3)nn2)c(=O)[nH]1 [Example 346, 1-(6-Phenoxypyridazin-3-Yl)Pyrimidine-2,4 (1H,3H)-Dione] | 50 to 70 | 
57 | O=C1CCC(c2cnc(Oc3cc(F)cc(F)c3)nc2)=NN1 [Example 105] | > 90 | 
58 | Nc1ccc(-c2cnc(Oc3ccccc3F)nc2)cn1 [Example 45] |  | inhibition in vivo at 5 mg/kg [2]: > 90%
59 | Cn1ncc2ccc(-c3cnc(Oc4ccc(F)cc4)nc3)nc21 [Example 278] | > 90 | 
60 | COCc1cn2cc(-c3cnc(Oc4ccccc4F)nc3)ccc2n1 [Example 209] | > 90 | 
61 | Fc1ccccc1Oc1ncc(-c2ccc3ccnn3c2)cn1 [Example 152] | > 90 | 
62 | OC1CCN(c2cnc(Oc3ccc(F)cc3)nc2)CC1 [Example 228] | > 90 | 
63 | O=C1CCN(c2ccc(Oc3ccc(F)cc3)cc2)C(=O)N1 [Example 310] | 50 to 70 | 
64 | COc1ccc(-c2cnc(Oc3cc(F)cc(F)c3)nc2)nn1 [Example 19] | > 90 | 
65 | Nc1nc2ccc(-c3cnc(Oc4ccccc4)nc3)cc2s1 [Example 240, 6-(2-Phenoxypyrimidin-5-Yl)Benzo[d]Thiazol-2-Amine] | > 90 | 
66 | Cn1ccc2ccc(-c3cnc(Oc4ccccc4)nc3)nc21 [Example 215] | > 90 | 
67 | NC1=NC2C=CC(c3cnc(Oc4ccccc4)nc3)=CC2=N1 (stereo not shown) [Example 147] | > 90 | 
68 | Fc1ccccc1Oc1ncc(-c2ccc3nncn3n2)cn1 [Example 290] | > 90 | 
69 | O=C1Cc2ccc(-c3cnc(Oc4ccccc4F)nc3)cc2N1 [Example 269] | > 90 | 
70 | COc1ccc(-c2cnc(Oc3cccc(C(F)(F)F)c3)nc2)cn1 [Example 16] | > 90 | 
71 | O=c1ccn(-c2ccc(Oc3ccccc3)cc2)c(=O)[nH]1 [Example 322, 1-(4-Phenoxyphenyl)Pyrimidine-2,4 (1H,3H)-Dione] | 50 to 70 | 
72 | FC(F)c1ccc(-c2cnc(Oc3ccccc3)nc2)cn1 [Example 37] | > 90 | 
73 | Nc1ccc(-c2cnc(Oc3c(F)cccc3F)nc2)cn1 [Example 52] | > 90 | 
